Measured values taken from publication PMC3272345 (Chemmedchem, 2011).

Tests used:
[1] = target: T1, Leishmania CRK3–CYC6 complex (Leishmania mexicana, UniProt O15851); experiment: IMAP-FP primary screen; type: biochemical, L. mexicana CRK3, L. major CYC6; details: for inhibition at 30 µM: read-out: CRK3–CYC6 Inhib. [%]
T1 sequence (O15851 1-311): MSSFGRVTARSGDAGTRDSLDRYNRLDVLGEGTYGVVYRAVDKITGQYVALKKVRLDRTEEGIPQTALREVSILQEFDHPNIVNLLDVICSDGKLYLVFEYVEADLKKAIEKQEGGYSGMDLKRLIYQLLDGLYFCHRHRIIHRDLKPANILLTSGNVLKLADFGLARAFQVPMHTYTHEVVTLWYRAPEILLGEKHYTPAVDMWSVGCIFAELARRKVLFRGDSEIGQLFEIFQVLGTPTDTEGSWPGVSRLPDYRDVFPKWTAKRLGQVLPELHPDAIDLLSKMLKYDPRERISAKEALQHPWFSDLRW
T1 sequence (Q4Q4U0 1-303 partner): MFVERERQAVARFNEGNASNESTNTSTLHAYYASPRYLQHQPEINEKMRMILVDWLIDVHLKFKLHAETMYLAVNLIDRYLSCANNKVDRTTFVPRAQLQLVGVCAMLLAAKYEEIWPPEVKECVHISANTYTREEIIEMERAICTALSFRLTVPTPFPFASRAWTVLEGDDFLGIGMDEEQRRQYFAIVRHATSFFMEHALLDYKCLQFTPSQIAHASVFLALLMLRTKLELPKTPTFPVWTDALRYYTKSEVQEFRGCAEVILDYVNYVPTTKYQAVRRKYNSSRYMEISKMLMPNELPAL

[2] = target: T2, Leishmania CRK3–CYC6 (Leishmania mexicana, UniProt O15851); experiment: radiometric CRK3 assay; type: biochemical, L. mexicana CRK3, L. major CYC6
T2 sequence (O15851 1-311): T1 sequence (O15851 1-311)
T2 sequence (Q4Q4U0 1-303 partner): T1 sequence (Q4Q4U0 1-303 partner)

[3] = target: HsCDK2–CYCA (Homo sapiens, UniProt P24941); experiment: radiometric CDK2 counter-screen; type: biochemical; details: HsCDK2–CYCA IC50 [μM], mean of two or more experiments; 1 μM ATP
[4] = tested on: panel of 76 human kinases; experiment: DSTT Dundee kinase panel; type: biochemical; details: for selectivity against panel of 76 human kinases (in words): 10 μM
[5] = mammalian cell line counter-screen; type: cell-based; details: human, MRC5 cells
[6] = CRK3–CYC6 IC50 [μM], mean of two or more experiments, 1 μM ATP

## CC(=O)Nc1cc(-c2ccc(Cl)cc2)n[nH]1 [Compound 2, N-(5-(4-Chlorophenyl)-1H-pyrazol-3-yl)acetamide]
[1]
  inhibition at 30 µM: 74%
[2]; [6]
  IC50: 3 µM
[3]
  IC50: 1.6 µM

## O=C(Nc1cc(-c2ccc(Cl)cc2)[nH]n1)C1CCC1 [Compound 7, N-(5-(4-Chlorophenyl)-1H-pyrazol-3-yl)cyclobutanecarboxamide]
[1]
  inhibition at 30 µM: 99%
[2]; [6]
  IC50: 0.9 µM
[3]
  IC50: 1.2 µM

## O=C(Nc1cc(-c2ccc(Cl)cc2)[nH]n1)c1cccnc1 [Compound 10, N-(5-(4-Chlorophenyl)-1H-pyrazol-3-yl)nicotinamide]
[1]
  inhibition at 30 µM: 100%

## O=C(Nc1cc(-c2ccc(Cl)cc2)[nH]n1)C1CCCCC1 [Compound 11, N-[5-(4-Chlorophenyl)-1H-pyrazol-3-yl]cyclohexanecarboxamide]
[1]
  inhibition at 30 µM: 100%
[4]
  selectivity against panel of 76 human kinases (in words): highly selective
[4]; of 76 kinases
  number of human kinases with >50 % inhibition at 10 μM: three

## Cc1cccc(-c2ccc3nc(NCC4CCCCC4)nn3c2)c1 [Compound 36]
[2]; [6]
  IC50: 3 µM
[3]
  IC50: 64 µM

## CC1(C)CC(=O)C=C(NC(=O)Nc2ccccc2)C1 [Compound 50]
[2]; [6]
  IC50: 0.095 µM
[3]
  IC50: > 100 µM
[5]
  EC50: ≥ 50000 nM

## CC1(C)CC(=O)C=C(NC(=O)NC2CCCCC2)C1 [Compound 54, 1-Cyclohexyl-3-(5,5-dimethyl-3-oxocyclohex-1-en-1-yl)urea]
[2]; [6]
  IC50: 0.098 µM
[3]
  IC50: > 100 µM

## COc1ccccc1NC(=O)NC1=CC(=O)CC(C)(C)C1 [Compound 55]
[2]; [6]
  IC50: 8 µM
[3]
  IC50: > 100 µM

## COc1cccc(NC(=O)NC2=CC(=O)CC(C)(C)C2)c1 [Compound 56, 1-(5,5-Dimethyl-3-oxocyclohex-1-en-1-yl)-3-(3-methoxyphenyl)urea]
[2]; [6]
  IC50: 0.04 µM
[3]
  IC50: > 100 µM

## COc1ccc(NC(=O)NC2=CC(=O)CC(C)(C)C2)cc1 [Compound 57]
[2]; [6]
  IC50: 0.89 µM
[3]
  IC50: > 100 µM

## CC1(C)CC(=O)C=C(NC(=O)Nc2ccc(OCc3ccccc3)cc2)C1 [Compound 58]
[2]; [6]
  IC50: 0.11 µM
[3]
  IC50: > 100 µM
[4]
  selectivity against panel of 76 human kinases (in words): highly selective

## COC(=O)c1ccc(NC(=O)NC2=CC(=O)CC(C)(C)C2)cc1 [Compound 59]
[3]
  IC50: > 100 µM
[4]
  selectivity against panel of 76 human kinases (in words): highly selective

## CC1(C)CC(=O)C=C(NC(=O)Nc2ccc(O)cc2)C1 [Compound 60]
[3]
  IC50: 5.9 µM

## O=C1C=C(NC(=O)Nc2ccccc2)CCC1 [Compound 61]
[2]; [6]
  IC50: > 100 µM
[3]
  IC50: > 100 µM

## CN[C@@H]1C[C@H]2O[C@@](C)([C@@H]1OC)n1c3ccccc3c3c4c(c5c6ccccc6n2c5c31)C(=O)NC4 [staurosporine, reference compound]
[1]
  IC50: 29 nM
[2]; potency (IC50) in radiometric Leishmania CRK3 assay
  IC50: 0.0091 µM
